# Results taken from US20260248765A1, “TIME RELEASE SLEEP AID SYSTEM” (NightWise, LLC, priority 2017, published 2026).
# Experiment: Release time based on dissolution times of each ingredient in water
# Assay type: physicochemical
# Conditions: soft chew composition of Table 2
# Experimental: The release time was determined based on dissolution times of each ingredient in water.
row,SMILES,Release Time [min]
1,"CN1c2c(nc(N)[nH]c2=O)NC[C@@H]1CNc1ccc(C(=O)N[C@@H](CCC(=O)O)C(=O)O)cc1.N[C@H]1C(O)O[C@H](CO)[C@@H](O)[C@@H]1O [QUATREFOLIC ™, (6S)-5-methyltetrahydrofolic acid, glucosamine salt]",0
2,N[C@@H](Cc1c[nH]c2ccc(O)cc12)C(=O)O [5-Hydroxytryptophan],0
3,NCCCC(=O)O [PHARMAGABA ™],0
4,Cc1cc2nc3c(=O)[nH]c(=O)nc-3n(C[C@H](O)[C@H](O)[C@H](O)COP(=O)([O-])O)c2cc1C.[Na+] [Riboflavin 5′-Phosphate Sodium],0
5,NCC(=O)[O-].NCC(=O)[O-].[Mg+2] [Magnesium Glycinate],0
6,"COc1ccc2[nH]cc(CCNC(C)=O)c2c1 [Melatonin, reference compound]",0
7,"Cc1ncc(COP(=O)(O)O)c(C=O)c1O.O [Vitamin B6, pyridoxal-5-phosphate monohydrate]",0
8,"C/C1=C2/[N-][C@H]([C@H](CC(N)=O)[C@@]2(C)CCC(=O)NC[C@@H](C)OP(=O)([O-])O[C@H]2[C@@H](O)[C@@H](n3cnc4cc(C)c(C)cc43)O[C@@H]2CO)[C@]2(C)N=C(/C(C)=C3N=C(/C=C4N=C1[C@@H](CCC(N)=O)C\4(C)C)[C@@H](CCC(N)=O)[C@]\3(C)CC(N)=O)[C@@H](CCC(N)=O)[C@]2(C)CC(N)=O.[CH3-].[Co+3] [Vitamin B12, methylcobalamin]",0
